Experimental data as given in ChEMBL document CHEMBL4251560, “The Novel 4-Phenyl-2-Phenoxyacetamide Thiazoles modulates the tumor hypoxia leading to the crackdown of neoangiogenesis and evoking the cell death” (Eur J Med Chem, 2018).
Active and inactive are the calls of the source. The calls are words filed in the database; no cut-off is given here.

How the values were obtained:
[1] = tested on: Mus musculus; assay: Up-regulation of p53 protein expression in Swiss albino mouse EAC cells implanted with mouse EAC at 25 to 50 mg/kg, ip administered every alternate day for 3 days by immunoblot analysis; format: functional, organism-based
[2] = tested on: Ehrlich; assay: Antitumor activity against mouse EAC cells implanted in ip dosed Swiss albino mouse assessed as decrease in tumor volume administered every alternate day for 3 days; format: functional, organism-based
[3] = tested on: Ehrlich; assay: In vivo induction of apoptosis in mouse EAC cells implanted in Swiss albino mouse assessed as EAC cell shrinkage at 25 to 50 mg/kg, ip administered every alternate day for 3 days by Geimsa staining-based microscopic analysis; format: functional, organism-based
[4] = tested on: Ehrlich; assay: Antitumor activity against mouse EAC solid tumor implanted in Swiss albino mouse assessed as reduction in tumor growth at 25 mg/kg, ip administered every alternate day for 3 days by animal morphology analysis; format: functional, organism-based
[5] = tested on: Ehrlich; assay: In vivo induction of apoptosis in mouse EAC cells implanted in Swiss albino mouse assessed as EAC cell membrane blebbing at 25 to 50 mg/kg, ip administered every alternate day for 3 days by Geimsa staining-based microscopic analysis; format: functional, organism-based
[6] = tested on: Ehrlich; assay: Antitumor activity against mouse EAC cells implanted in Swiss albino mouse assessed as decrease in tumor volume at 50 mg/kg, ip administered every alternate day for 3 days; format: functional; conditions: 72 h, read-out: TGI
[7] = tested on: MCF7; assay: Cytotoxicity against human MCF7 cells assessed as reduction in cell viability after 48 hrs by MTT assay; format: functional, cell-based; conditions: MCF7, 48 h
[8] = tested on: Chorioallantoic membrane; assay: In vivo antiangiogenic activity in chicken chorioallantoic membrane assessed as inhibition of recombinant VEGF165-induced vessel formation after 3 days; format: functional, Gallus gallus
[9] = tested on: Ehrlich; assay: Cytotoxicity against mouse EAC cells assessed as reduction in cell viability after 48 hrs by trypan blue exclusion assay; format: functional, cell-based
[10] = tested on: Mus musculus; assay: In vivo induction of apoptosis in mouse EAC cells implanted in Swiss albino mouse assessed as DNA fragmentation at 25 to 50 mg/kg, ip administered every alternate day for 3 days by DNA fragmentation assay; format: functional, organism-based
[11] = tested on: Mus musculus; assay: Up-regulation of MDM2 protein expression in Swiss albino mouse EAC cells implanted with mouse EAC at 25 to 50 mg/kg, ip administered every alternate day for 3 days by immunoblot analysis; format: functional, organism-based
[12] = Cytotoxicity against mouse DLA cells assessed as reduction in cell viability after 48 hrs by trypan blue exclusion assay; format: functional, cell-based
[13] = tested on: Ehrlich; assay: Cytotoxicity against mouse EAC cells assessed as reduction in cell viability after 48 hrs by MTT assay; format: functional, cell-based
[14] = tested on: Mus musculus; assay: In vivo inhibition of VEGF secretion in Swiss albino mouse EAC cells implanted with mouse EAC at 25 to 50 mg/kg, ip administered every alternate day for 3 days by ELISA; format: functional, organism-based
[15] = tested on: Cornea; assay: Antiangiogenic activity in cornea of alkali injured rat eye assessed as induction of restraining of vessel sprouting applied to centre of cornea for 40 secs post alkali injury; format: functional
[16] = tested on: MDA-MB-468; assay: Cytotoxicity against human MDA-MB-468 cells assessed as reduction in cell viability after 48 hrs by trypan blue exclusion assay; format: functional, cell-based; conditions: MDA-MB-468, 48 h
[17] = tested on: MDA-MB-468; assay: Cytotoxicity against human MDA-MB-468 cells assessed as reduction in cell viability after 48 hrs by MTT assay; format: functional, cell-based; conditions: MDA-MB-468, 48 h
[18] = tested on: Mus musculus; assay: In vivo inhibition of HIF-1alpha expression in Swiss albino mouse EAC cells implanted with mouse EAC at 25 to 50 mg/kg, ip administered every alternate day for 3 days by immunoblot analysis; format: functional, organism-based
[19] = tested on: Ehrlich; assay: Antitumor activity against mouse EAC solid tumor implanted in ip dosed Swiss albino mouse assessed as reduction in tumor volume administered every alternate day for 3 days; format: functional, organism-based
[20] = Cytotoxicity against mouse DLA cells assessed as reduction in cell viability after 48 hrs by MTT assay; format: functional, cell-based
[21] = tested on: Ehrlich; assay: Antitumor activity against mouse EAC cells implanted in Swiss albino mouse assessed as mouse survival at 25 to 50 mg/kg, ip administered every alternate day for 3 days; format: functional
[22] = tested on: Ehrlich; assay: Antitumor activity against mouse EAC cells implanted in ip dosed Swiss albino mouse assessed as reduction in ascite volume administered every alternate day for 3 days; format: functional
[23] = tested on: A549; assay: Cytotoxicity against human A549 cells assessed as reduction in cell viability after 48 hrs by trypan blue exclusion assay; format: functional, cell-based; conditions: A549, 48 h
[24] = tested on: Ehrlich; assay: In vivo antiangiogenic activity in mouse EAC implanted in Swiss albino mouse assessed as regression of tumor-induced angiogenesis in peritoneum at 5 mg/kg, ip administered every alternate day for 3 days; format: functional; conditions: 72 h
[25] = tested on: MCF7; assay: Cytotoxicity against human MCF7 cells assessed as reduction in cell viability after 48 hrs by trypan blue exclusion assay; format: functional, cell-based; conditions: MCF7, 48 h
[26] = tested on: Ehrlich; assay: Antitumor activity against mouse EAC cells implanted in Swiss albino mouse assessed as decrease in tumor volume at 25 mg/kg, ip administered every alternate day for 3 days; format: functional; conditions: 72 h, read-out: TGI
[27] = tested on: A549; assay: Cytotoxicity against human A549 cells assessed as reduction in cell viability after 48 hrs by MTT assay; format: functional, cell-based; conditions: A549, 48 h
[28] = tested on: Ehrlich; assay: In vivo induction of apoptosis in mouse EAC cells implanted in Swiss albino mouse assessed as induction of EAC cell irregular shape at 25 to 50 mg/kg, ip administered every alternate day for 3 days by Geimsa staining-based microscopic analysis; format: functional, organism-based
[29] = tested on: Mus musculus; assay: Toxicity in Swiss albino mouse implanted with mouse EAC cells assessed as induction of adverse effect on liver at 25 to 50 mg/kg, ip administered every alternate day for 3 days; format: organism-based; conditions: in vivo, 72 h
[30] = tested on: Ehrlich; assay: Antitumor activity against mouse EAC cells implanted in ip dosed Swiss albino mouse assessed as reduction in cell density administered every alternate day for 3 days; format: functional
[31] = tested on: Mus musculus; assay: Toxicity in Swiss albino mouse implanted with mouse EAC cells assessed as induction of adverse effect on spleen at 25 to 50 mg/kg, ip administered every alternate day for 3 days; format: organism-based; conditions: in vivo, 72 h
[32] = tested on: Ehrlich; assay: In vivo antiangiogenic activity in mouse EAC implanted in Swiss albino mouse assessed as regression of tumor-induced angiogenesis in peritoneum at 25 mg/kg, ip administered every alternate day for 3 days; format: functional; conditions: 72 h
[33] = tested on: Ehrlich; assay: In vivo antiangiogenic activity in mouse EAC implanted in Swiss albino mouse administered ip assessed as regression of tumor-induced angiogenesis in peritoneum administered every alternate day for 3 days; format: functional, organism-based
[34] = tested on: Ehrlich; assay: Antitumor activity against mouse EAC solid tumor implanted in Swiss albino mouse assessed as reduction in tumor mass at 25 mg/kg, ip administered every alternate day for 3 days; format: functional

## Cc1ccc(-c2csc(NC(=O)COc3ccc(F)cc3F)n2)cc1
[1]
  Activity: Active
[2]
  Activity: Dose-dependent effect
[3]
  Activity: Active
[4]
  TGI: Active
[5]
  Activity: Active
[6]
  inhibition in vivo at 50 mg/kg: 80.2%
[7]
  IC50: 14.5 µM
[8]
  inhibition (INH): 80%
[9]
  IC50: 14 µM
[10]
  Activity: Active
[11]
  Activity: Active
[12]
  IC50: 13.9 µM
[13]
  IC50: 14.9 µM
[14]
  inhibition: Active
[15]
  Activity: 60%
[16]
  IC50: 10.2 µM
[17]
  IC50: 10.5 µM
[18]
  inhibition: Active
[19]
  Activity: Dose-dependent effect
[20]
  IC50: 13.4 µM
[21]
  Survival: >=23 - 25 day
[22]
  Activity: Dose-dependent effect
  fold change (FC): 3 - 4
[23]
  IC50: 13.2 µM
[24]
  inhibition in vivo at 5 mg/kg: 10%
[25]
  IC50: 14 µM
[26]
  inhibition in vivo at 25 mg/kg: 74.3%
[27]
  IC50: 13.9 µM
[28]
  Activity: Active
[29]
  Activity: Non-Toxic
[30]
  fold change (FC): 6
[31]
  Activity: Non-Toxic
[32]
  inhibition in vivo at 25 mg/kg: 30%
[33]
  Activity: Dose-dependent effect
[34]
  Activity: <=10 g
